Assay [1] concerns passive avoidance test. Set-up: method as in Mihara et al., 2007. Conditions: rats; ref Mihara et al., 2007; cited from earlier work.
Assay [2] has as its system haloperidol-induced catalepsy. Also noted: method as in Mihara et al., 2007. Conditions: monkeys; ref Mihara et al., 2007; cited from earlier work.
In assay [3] the target is T1, human A3 AR (Homo sapiens, UniProt P0DMS8).
T1 construct: expressed in transfected cells; host or cells: CHO cells
T1 sequence (P0DMS8 1-318): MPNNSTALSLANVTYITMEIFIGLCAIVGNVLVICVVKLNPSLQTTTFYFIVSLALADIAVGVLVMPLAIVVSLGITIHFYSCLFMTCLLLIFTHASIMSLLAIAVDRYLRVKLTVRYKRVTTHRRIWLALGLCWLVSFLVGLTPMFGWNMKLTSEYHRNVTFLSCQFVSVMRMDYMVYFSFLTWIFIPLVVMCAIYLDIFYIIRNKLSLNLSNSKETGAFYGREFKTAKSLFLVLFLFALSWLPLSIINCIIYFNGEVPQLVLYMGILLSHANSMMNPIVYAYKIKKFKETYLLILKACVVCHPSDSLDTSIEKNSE
As to conditions: human (h); Figure 2; ref Chen et al., 2002; Stössel et al., 2013; Mihara et al., 2007; read-out: A3 (Ki); cited from earlier work.

In assay [4] the target is T2, rat A2A AR (Rattus norvegicus, UniProt P30543).
T2 construct: A2A ARs of rat brain striatal membrane preparations; from tissue; host or cells: rat brain striatum membranes
Description: Radioligand binding assay at rat A2A AR (rat brain striatum) vs. [^3H]MSX-2. As to conditions: rat (r). A digest of the protocol: (§1)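 Using CHO membranes with one recombinant human AR subtype each (A1, A2A, A2B, A3), plus rat cortical (A1) and striatal (A2A) membranes, compounds are tested in radioligand binding to give receptor affinity and subtype selectivity.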

Assay [5] concerns the target T3, rat A1 AR (Rattus norvegicus, UniProt P25099).
T3 construct: A1 ARs of rat brain cortical membrane; from tissue; host or cells: rat brain cortex membranes
T3 sequence (P25099 1-326): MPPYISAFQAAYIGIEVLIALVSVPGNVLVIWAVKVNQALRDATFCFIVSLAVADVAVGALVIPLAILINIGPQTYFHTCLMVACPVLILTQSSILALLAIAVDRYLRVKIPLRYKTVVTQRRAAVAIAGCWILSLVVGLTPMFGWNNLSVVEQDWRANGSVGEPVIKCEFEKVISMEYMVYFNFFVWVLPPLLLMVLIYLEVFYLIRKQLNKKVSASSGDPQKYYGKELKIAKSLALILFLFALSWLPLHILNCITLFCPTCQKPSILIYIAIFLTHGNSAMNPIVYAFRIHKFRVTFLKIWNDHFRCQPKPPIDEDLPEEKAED
Description: Radioligand binding assay at rat A1 AR (rat brain cortex) vs. [^3H]CCPA. Conditions: rat (r). A digest of the protocol:
as §1

Assay [6] deals with ARs. Description: Radioligand binding assays at adenosine receptors (statements on ARs in general). As to the method:
Membrane preparations and radioligand binding assays at rat A1 (rat brain cortex) and rat A2A ARs (rat brain striatum) were performed as previously described (Ozola et al., [2003]; Alnouri et al., [2015]). For assays at human A1, A2A, A2B, and A3 ARs, CHO cell membranes expressing one of the human AR subtypes were used as previously reported (Klotz et al., [1998]; Alnouri et al., [2015]; De Filippo et al., [2016]).
The synthesized tetrahydropyrazino[2,1-f ]purinediones 13–20 were evaluated in radioligand binding assays for their affinity to A1 ARs of rat brain cortical membrane and to A2A ARs of rat brain striatal membrane preparations. Selected compounds were further investigated for their affinity to human A1 and A2A ARs recombinantly expressed in Chinese hamster ovary (CHO) cells. All compounds were additionally investigated for their affinity to human A2B and A3 ARs recombinantly expressed in CHO cells to determine their AR subtype selectivity. […] It is well known that all xanthine derivatives lacking a ribose moiety, including tricyclic compounds, can only block ARs, but never act as AR agonists; therefore, additional functional studies were not required. […] Potent MAO-B inhibitors were additionally investigated for inhibition of human MAO-A to assess their selectivity. Results are presented in Tables 1–6, and data of standard ligands are included for comparison.

Assay [7] addresses T1, human A3 AR. The experiment in a line: Radioligand binding assay at human A3 AR vs. [^3H]PSB-11. In a few lines:
as §1

Assay [8] has as its target T4, human A2B AR (Homo sapiens, UniProt P29275).
T4 construct: expressed in transfected cells; host or cells: CHO cells
T4 sequence (P29275 1-332): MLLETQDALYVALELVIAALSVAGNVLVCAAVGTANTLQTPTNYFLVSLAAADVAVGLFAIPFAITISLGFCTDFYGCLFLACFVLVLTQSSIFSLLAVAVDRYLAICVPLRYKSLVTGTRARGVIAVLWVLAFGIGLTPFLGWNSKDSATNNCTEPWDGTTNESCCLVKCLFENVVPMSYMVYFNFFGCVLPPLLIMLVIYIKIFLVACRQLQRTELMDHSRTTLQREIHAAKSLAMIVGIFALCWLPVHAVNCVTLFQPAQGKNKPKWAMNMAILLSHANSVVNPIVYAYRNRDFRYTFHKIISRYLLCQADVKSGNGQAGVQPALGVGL
The experiment in a line: Radioligand binding assay at human A2B AR vs. [^3H]PSB-603. A digest of the protocol: as §1

Assay [9] has as its target T5, recombinant human MAO-B (Homo sapiens, UniProt P27338).
T5 construct: purchased Sigma-Aldrich M7441; host or cells: baculovirus-infected insect cells
T5 sequence (P27338 1-520): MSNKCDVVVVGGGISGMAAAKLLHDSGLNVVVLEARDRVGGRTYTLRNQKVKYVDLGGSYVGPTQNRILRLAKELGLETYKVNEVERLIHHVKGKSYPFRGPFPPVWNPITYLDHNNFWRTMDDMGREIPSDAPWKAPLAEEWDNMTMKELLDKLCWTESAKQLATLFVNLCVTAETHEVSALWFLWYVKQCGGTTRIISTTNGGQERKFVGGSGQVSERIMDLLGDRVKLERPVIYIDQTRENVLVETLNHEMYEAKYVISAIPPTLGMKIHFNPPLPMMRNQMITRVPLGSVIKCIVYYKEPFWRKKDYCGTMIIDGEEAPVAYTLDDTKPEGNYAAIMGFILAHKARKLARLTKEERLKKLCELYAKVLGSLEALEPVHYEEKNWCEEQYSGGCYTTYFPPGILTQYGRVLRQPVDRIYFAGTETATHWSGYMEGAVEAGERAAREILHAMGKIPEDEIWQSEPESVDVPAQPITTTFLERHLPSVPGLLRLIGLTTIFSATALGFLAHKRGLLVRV
The experiment in a line: Monoamine oxidase assay (Amplex Red), MAO-B. It is filed as biochemical. Conditions: for inhibition at 10 µM: at 10,000 nM (10 μM), read-out: % inhibition at indicated concentration, Human MAO-B; for IC50: n = 3, read-out: IC50 ± SEM, Human MAO-B. In a few lines:
(§2)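 Recombinant human MAO-A and MAO-B, expressed in baculovirus-infected insect cells, were assayed by Amplex Red fluorometric detection. Rat MAO-B inhibition used mitochondria-enriched fractions from male Sprague Dawley rat liver.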

The target in assay [10] is T6, recombinant human MAO-A (Homo sapiens, UniProt P21397).
T6 construct: purchased Sigma-Aldrich M7316; host or cells: baculovirus-infected insect cells
T6 sequence (P21397 1-527): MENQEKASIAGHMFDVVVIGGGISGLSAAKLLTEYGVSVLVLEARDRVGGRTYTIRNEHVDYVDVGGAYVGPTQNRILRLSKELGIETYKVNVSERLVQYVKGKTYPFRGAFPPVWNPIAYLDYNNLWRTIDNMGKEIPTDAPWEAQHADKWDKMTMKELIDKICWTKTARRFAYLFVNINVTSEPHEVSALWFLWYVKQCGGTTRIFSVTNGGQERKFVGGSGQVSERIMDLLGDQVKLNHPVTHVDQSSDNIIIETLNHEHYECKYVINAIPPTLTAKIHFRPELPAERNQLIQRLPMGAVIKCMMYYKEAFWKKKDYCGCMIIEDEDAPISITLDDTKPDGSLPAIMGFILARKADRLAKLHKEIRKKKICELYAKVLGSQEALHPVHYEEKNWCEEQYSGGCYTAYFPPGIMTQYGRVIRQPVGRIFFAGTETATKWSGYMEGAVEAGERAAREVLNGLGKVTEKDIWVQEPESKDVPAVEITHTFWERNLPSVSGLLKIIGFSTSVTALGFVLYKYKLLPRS
The experiment in a line: Monoamine oxidase assay (Amplex Red), MAO-A. The class given is biochemical. Conditions: for inhibition at 10 µM: at 10,000 nM, read-out: % inhibition at indicated concentration, Human MAO-A; for IC50: n = 3, read-out: IC50 ± SEM, Human MAO-A. In a few lines:
as §2

The target in assay [11] is T6, recombinant human MAO-A. As to conditions: human (h); Figure 1; ref Petzer et al., 2009; Müller and Jacobson, 2011; Brunschweiger et al., 2014; cited from earlier work.
The target in assay [12] is T5, recombinant human MAO-B. As to conditions: human (h); Figure 1; ref Petzer et al., 2009; Müller and Jacobson, 2011; Brunschweiger et al., 2014; cited from earlier work.

Like-named read-outs stand apart in the source and are kept apart here.

T2 sequence (P30543 whole entry): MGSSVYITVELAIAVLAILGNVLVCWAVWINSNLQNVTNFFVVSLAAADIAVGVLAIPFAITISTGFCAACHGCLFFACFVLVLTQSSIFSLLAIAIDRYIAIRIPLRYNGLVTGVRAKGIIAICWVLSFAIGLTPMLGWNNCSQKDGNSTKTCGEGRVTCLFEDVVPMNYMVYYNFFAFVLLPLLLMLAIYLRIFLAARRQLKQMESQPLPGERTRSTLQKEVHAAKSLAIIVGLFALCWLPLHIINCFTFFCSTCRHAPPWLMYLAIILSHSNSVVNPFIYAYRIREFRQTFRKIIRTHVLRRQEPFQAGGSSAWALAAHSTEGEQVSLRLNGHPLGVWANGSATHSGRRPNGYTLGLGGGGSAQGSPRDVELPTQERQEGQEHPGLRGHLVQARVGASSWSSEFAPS

As a reminder, the Ki is the dissociation constant of the complex between target and ligand, obtained from inhibition or displacement. Take `CC(C)n1cc(-c2ncc(N)nc2-c2ccc(F)cc2)ccc1=O` [ASP-5854, 5-[5-amino-3-(4-fluorophenyl)pyrazin-2-yl]-1-isopropylpyridine-2(1H)-one]: in [1], the “result in the passive avoidance test” value was “positive results”. Also, the “effect on haloperidol-induced catalepsy” value in assay [2] is reported as “reversed”. For the same compound, the Ki in [3] is above 0.557 µM.

The IC50 is the concentration that gives 50% inhibition. For the compound `CCn1c(=O)c2c(nc3n2CCN(Cc2cc(C(F)(F)F)cc(C(F)(F)F)c2)C3)n(C)c1=O` [Compound 14q, 8-(3,5-bis(trifluoromethyl)benzyl)-3-ethyl-1-methyl-6,7,8,9-tetrahydropyrazino[2,1-f]purine-2,4(1H,3H)-dione], the “% inhibition of radioligand binding at indicated concentration, A2A vs. [^3H]MSX-2” value in [4] (at 1,000 nM) is 39%. Also, the Ki is above 1 µM in assay [4] (rat brain striatum, n = 3, read-out: Ki ± SEM, A2A vs. [^3H]MSX-2); above 1.5 µM in assay [5] (rat brain cortex, n = 3); above 10 µM in assay [7] (CHO cell membranes, n = 2 (n = 3 where marked a), read-out: Ki ± SEM, A3 vs. [^3H]PSB-11); above 1 µM in assay [8] (CHO cell membranes, n = 2 (n = 3 where marked a), read-out: Ki ± SEM, A2B vs. [^3H]PSB-603). Further, in assay [5] (read-out: % inhibition of radioligand binding at indicated concentration, A1 vs. [^3H]CCPA, at 1,500 nM), the inhibition at 1.5 µM was 31%. Besides, the “affinity for ARs (in words)” value in [6] was “nearly inactive”. The inhibition at 10 µM is 32% in [7] (at 10,000 nM, read-out: % inhibition of radioligand binding at indicated concentration, A3 vs. [^3H]PSB-11); 56% in assay [9]; 8% in assay [10]. Also, the inhibition at 1 µM in assay [8] (at 1,000 nM, read-out: % inhibition of radioligand binding at indicated concentration, A2B vs. [^3H]PSB-603) worked out at 2%. Besides, the concentration for half-maximal inhibition (IC50) in assay [9] is below 10 µM; in [10], above 10 µM.

Consider `CCn1c(=O)c2c(nc(/C=C/c3ccc(OC)c(OC)c3)n2C)n(CC)c1=O` [Istradefylline, istradefylline, reference compound], for which the IC50 in assay [11], in assay [12], in [9] and in assay [10] was above 10 µM throughout. For the same compound, in assay [1], the “result in the passive avoidance test” value is “inactive”. Further, the inhibition at 10 µM came to 20% in [9] and 18% in assay [10].
